According to PubChem BioAssay (NCI):
Values joined by “and” are separate entries in the source; they are usually repeats but may differ in a detail not shown here. Equal values may be shown once.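 Method: 48-hour compound exposure of cells in 96-well plates, five concentrations, linear interpolation of endpoints. GI50 marks 50% less growth. TGI is the concentration that stops growth completely.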

Key:
Assay in all cases: inhibition of tumour cell growth, NCI panel, 48 h
IGROV1 ovarian = system: IGROV1 ovarian
MDA-MB-435 = system: MDA-MB-435
SF-295 CNS = system: SF-295 CNS
DU-145 prostate = system: DU-145 prostate
SK-OV-3 ovarian = system: SK-OV-3 ovarian
SR leukemia = system: SR leukemia
786-0 renal = system: 786-0 renal
SW-620 colon = system: SW-620 colon
BT-549 breast = system: BT-549 breast
NCI-H460 lung = system: NCI-H460 lung

Structure (SMILES)	GI50 (IGROV1 ovarian)	TGI (IGROV1 ovarian)	GI50 (MDA-MB-435)	TGI (MDA-MB-435)	GI50 (SF-295 CNS)	TGI (SF-295 CNS)	GI50 (DU-145 prostate)	TGI (DU-145 prostate)	GI50 (SK-OV-3 ovarian)	TGI (SK-OV-3 ovarian)	GI50 (SR leukemia)	TGI (SR leukemia)	GI50 (786-0 renal)	TGI (786-0 renal)	GI50 (SW-620 colon)	TGI (SW-620 colon)	GI50 (BT-549 breast)	TGI (BT-549 breast)	GI50 (NCI-H460 lung)	TGI (NCI-H460 lung)
CC1(C)N=C(N)N=C(N)N1c1cccc(C#N)c1	6.7 µM	> 100 µM	0.594 µM	> 100 µM	2.05 µM	24.1 µM	6.53 µM	> 100 µM	21.2 µM	> 100 µM	4.36 µM	> 100 µM	0.578 µM	> 100 µM	0.567 µM	> 100 µM	27.9 µM	> 100 µM	2.8 µM	> 100 µM
Nc1[nH]c(=O)ncc1F		> 100 µM		> 100 µM		> 100 µM		> 100 µM		> 100 µM		> 100 µM		> 100 µM		> 100 µM		> 100 µM		> 100 µM
C[C@]12O[C@H](C[C@]1(O)CO)n1c3ccccc3c3c4c(c5c6ccccc6n2c5c31)CNC4=O	0.0514 µM and 0.111 µM	3.67 µM and 4.9 µM	0.044 µM and 0.0371 µM	3.97 µM and 2.01 µM	0.171 µM and 0.101 µM	2.45 µM and 2.02 µM	0.0881 µM and 0.11 µM	> 10 µM and 10.2 µM	0.0183 µM and 0.0214 µM	0.146 µM and 0.521 µM	0.0203 µM and 0.022 µM	0.474 µM and 0.24 µM	0.197 µM and 0.213 µM	1.45 µM and 1.89 µM	0.05 µM and 0.0589 µM	> 10 µM and 7.84 µM	0.203 µM and 0.288 µM	1.45 µM and 1.81 µM	0.11 µM and 0.12 µM	1.63 µM and 1.78 µM
O=C(NCc1cccnc1)/C(=C\c1ccc(Br)cc1)S(=O)(=O)c1ccccc1	0.636 µM	2.11 µM	0.477 µM	1.73 µM	1.72 µM	3.24 µM	0.431 µM	1.53 µM	2.7 µM	5.97 µM	0.309 µM	2.36 µM	1.15 µM	2.44 µM	0.416 µM	1.85 µM	0.913 µM	2.21 µM	0.714 µM	2.29 µM
CN(C)CCCNc1nn2c(=O)c3ccccc3nc2c2ccccc12	6.19 µM	47.8 µM	6.24 µM	22.5 µM	3.86 µM	24.5 µM	10.4 µM	28.4 µM	5.43 µM	22.8 µM	2.55 µM	8.74 µM	10.9 µM	23.7 µM	4.94 µM	19 µM	10.9 µM	45.7 µM	3.35 µM	13.6 µM
COc1ccc(-c2ccc3c(NC(=O)C4CC4)n[nH]c3n2)cc1	> 25 µM	> 25 µM	> 25 µM	> 25 µM	> 25 µM	> 25 µM	> 25 µM	> 25 µM	19.6 µM	> 25 µM	> 25 µM	> 25 µM	> 20.1 µM	> 25 µM	> 25 µM	> 25 µM	> 14.3 µM	> 25 µM	> 25 µM	> 25 µM
S=c1nc[nH]c2c1ncn2Cc1ccco1		> 100 µM		> 100 µM		> 100 µM		> 100 µM		> 100 µM		> 100 µM		> 100 µM		> 100 µM		> 100 µM		> 100 µM
CCSc1oc(-c2ccccc2)nc1[P+](c1ccccc1)(c1ccccc1)c1ccccc1	0.285 µM	1.53 µM	0.308 µM	1.12 µM	0.241 µM	0.739 µM	0.314 µM	2.63 µM	0.275 µM	0.977 µM	0.377 µM	24.2 µM	0.376 µM	2.11 µM	0.305 µM	7.32 µM	0.281 µM	1.68 µM	0.298 µM	1.08 µM
S=c1nc(-c2nc(=S)[nH]c3c2CCCCCCCCCC3)c2c([nH]1)CCCCCCCCCC2		> 100 µM		> 100 µM		> 100 µM		> 100 µM		> 100 µM		> 100 µM		> 100 µM		> 100 µM		> 100 µM		> 100 µM
O=C1c2ccccc2C(=O)c2c(NCCCNCCO)ccc(NCCCNCCO)c21		> 49 µM		25.7 µM		31.9 µM		35.8 µM		58.7 µM		20.8 µM		16.6 µM		17.6 µM		30.7 µM		15.5 µM
Cn1nc(C(F)(F)F)c(-c2ccc(Cl)c(C(F)(F)F)c2)c1-c1ccc(OCc2ccc(Cl)cc2)cc1O	2.18 µM	8.47 µM	1.63 µM	6.27 µM	1.64 µM	5.59 µM	2.03 µM	7.47 µM	1.42 µM	4.32 µM	2.06 µM	7.34 µM	1.8 µM	7.12 µM	1.84 µM	7.28 µM	1.54 µM	6.51 µM	1.71 µM	5.64 µM
CC[C@@]1(O)C(=O)NCc2c1cc1n(c2=O)Cc2cc3ccccc3nc2-1	12.1 µM	> 100 µM	10.9 µM	> 100 µM	0.575 µM	13.2 µM	2.28 µM	> 45.8 µM	8.68 µM	> 100 µM	0.123 µM	0.503 µM	1.63 µM	9.93 µM	3.39 µM	> 100 µM	9.04 µM	> 100 µM	0.556 µM	> 59.2 µM
COc1ccc(-c2ccc(/C=C/C(=O)NO)cc2)cc1	0.768 µM	9.66 µM	2.12 µM	> 100 µM	0.23 µM	2.01 µM	0.394 µM	4.45 µM	1.18 µM	3.21 µM	0.378 µM	> 20.6 µM	0.99 µM	3.79 µM	0.754 µM	> 100 µM	1.53 µM	25.9 µM	0.142 µM	4.46 µM
